Columns and labels:
Format in all cases: toxicity, cell-based
HEK-293T = test: Incucyte cell viability with HEK293T; details: human, 10 µM, compound concentration 10 uM
Fibroblast = test: Incucyte cell viability with human fibroblast; details: 10 µM, compound concentration 10 uM
U2OS = test: Incucyte cell viability with U2OS; details: human, 10 µM, compound concentration 10 uM
Also: unitless GR value; below 1 slowed growth and below 0 cell loss.

Structure (SMILES)	Growth Rate (HEK-293T; 6 h, replicate number 1)	Growth Rate (HEK-293T; 12 h, replicate number 1)	Growth Rate (HEK-293T; 18 h, replicate number 1)	Growth Rate (Fibroblast; 6 h, replicate number 2)	Growth Rate (Fibroblast; 12 h, replicate number 2)	Growth Rate (Fibroblast; 18 h, replicate number 1)	Growth Rate (Fibroblast; 18 h, replicate number 2)	Growth Rate (Fibroblast; 24 h, replicate number 2)	Growth Rate (U2OS; 0 h, replicate number 1)	Growth Rate (U2OS; 18 h, replicate number 1)	Growth Rate (HEK-293T; 6 h, replicate number 2)	Growth Rate (U2OS; 24 h, replicate number 2)	Growth Rate (HEK-293T; 24 h, replicate number 1)	Growth Rate (Fibroblast; 6 h, replicate number 1)	Growth Rate (Fibroblast; 12 h, replicate number 1)	Growth Rate (U2OS; 6 h, replicate number 2)	Growth Rate (U2OS; 12 h, replicate number 2)	Growth Rate (U2OS; 18 h, replicate number 2)	Growth Rate (HEK-293T; 12 h, replicate number 2)	Growth Rate (HEK-293T; 24 h, replicate number 2)	other results
CN(CC(=O)Nc1ccc(F)c(F)c1F)C(=O)c1ccc2c(c1)OCCO2	0.37	0.74	0.93	0.54	0.55	0.79	0.78	0.87	-0.71	0.76	–	–	–	–	–	–	–	–	–	–	Growth Rate (U2OS; 6 h, replicate number 1): 0.07; Growth Rate (U2OS; 12 h, replicate number 1): 0.45; Growth Rate (U2OS; 24 h, replicate number 1): 0.95
CC(C)c1cc(Br)c(NC(=O)Nc2cccnc2)c(Br)c1	–	–	–	-0.99	0.73	-0.82	0.89	–	-0.34	–	0.84	0.98	–	–	–	–	–	–	–	–	Growth Rate (HEK-293T; 0 h, replicate number 2): 0.91
CC(C)Oc1ccc(-c2cnc3c(-c4ccnc5ccccc45)cnn3c2)cc1	-0.63	-0.46	-0.07	–	–	0.49	–	–	-0.36	–	–	0.97	0.3	0.72	-1	0.23	0.74	0.79	–	–	Growth Rate (HEK-293T; 0 h, replicate number 2): 0.99; Growth Rate (Fibroblast; 0 h, replicate number 2): -0.98
O=S(=O)(Nc1ccc(C(O)(C(F)(F)F)C(F)(F)F)cc1)c1cccs1	0.89	–	0.88	0.87	–	0.89	0.93	0.87	-0.75	0.7	–	–	0.87	–	0.76	–	–	–	0.89	0.9	Growth Rate (Fibroblast; 0 h, replicate number 2): 0.56; Growth Rate (U2OS; 0 h, replicate number 2): 0.65; Growth Rate (U2OS; 6 h, replicate number 1): 0.58; Growth Rate (U2OS; 12 h, replicate number 1): 0.46; Growth Rate (U2OS; 24 h, replicate number 1): 0.8
CN(C)C/C=C/C(=O)Nc1cccc(C(=O)Nc2ccc(Nc3nccc(-c4cccnc4)n3)cc2)c1	-0.88	-0.9	-0.74	0.47	-0.34	–	-0.31	-0.26	-0.34	0.46	-0.56	0.13	-0.55	-1	–	–	0.74	0.42	-0.52	-0.37	Growth Rate (HEK-293T; 0 h, replicate number 2): 0.56; Growth Rate (HEK-293T; 18 h, replicate number 2): -0.44; Growth Rate (Fibroblast; 0 h, replicate number 2): 0.35; Growth Rate (U2OS; 12 h, replicate number 1): 0.85; Growth Rate (U2OS; 24 h, replicate number 1): 0.27
Cc1cc(-c2nncc3c(C(C)(C)C)c(OCc4ncnn4C)nn23)no1	0.14	0.35	0.1	-0.97	0.98	0.1	0.78	0.87	–	0.82	0.78	0.86	0.14	1	–	0.23	0.67	0.71	0.53	0.61	Growth Rate (HEK-293T; 0 h, replicate number 2): 0.72; Growth Rate (HEK-293T; 18 h, replicate number 2): 0.57; Growth Rate (Fibroblast; 0 h, replicate number 1): -0.5; Growth Rate (Fibroblast; 24 h, replicate number 1): 0.26; Growth Rate (U2OS; 0 h, replicate number 2): -0.99; Growth Rate (U2OS; 6 h, replicate number 1): 0.85; Growth Rate (U2OS; 24 h, replicate number 1): 0.93
C/C=C1\C(=O)CC2C3CCC4=CC(=O)CC[C@]4(C)C3CC[C@]12C (some centres undefined)	0.43	0.69	0.83	0.33	0.88	0.64	0.96	0.9	0.15	0.92	0.44	–	0.84	-0.19	0.83	–	–	–	0.92	–	Growth Rate (Fibroblast; 24 h, replicate number 1): 0.81; Growth Rate (U2OS; 6 h, replicate number 1): 0.52; Growth Rate (U2OS; 12 h, replicate number 1): 0.73
CCn1ccc(Nc2ncc3c(n2)-c2c(nn(C)c2-c2ccc(-c4cnn(C)c4)cc2Cl)CC3)n1	-0.49	-0.39	-0.28	–	0.65	0.32	0.5	0.19	-1	0.27	-0.71	-0.03	-0.24	0.64	0.87	0.57	0.22	0.13	-0.54	-0.33	Growth Rate (HEK-293T; 18 h, replicate number 2): -0.43; Growth Rate (Fibroblast; 0 h, replicate number 1): -1; Growth Rate (Fibroblast; 24 h, replicate number 1): 0.46; Growth Rate (U2OS; 24 h, replicate number 1): 0.21
COCCNc1cc(NC(=O)N2CCCc3cc(CN4CCOCC4=O)c(C=O)nc32)ncc1C#N	0.42	–	–	-1	0.58	-0.07	–	0.95	-0.03	–	–	–	–	0.86	-1	–	–	–	–	–	Growth Rate (HEK-293T; 0 h, replicate number 2): 0.81; Growth Rate (Fibroblast; 24 h, replicate number 1): 0.7; Growth Rate (U2OS; 6 h, replicate number 1): 0.95
C=CC(=O)Nc1cccc(C)c1Nc1ncc2cc(-c3c(Cl)c(OC)cc(OC)c3Cl)ccc2n1	-0.39	-0.35	-0.32	-0.2	0.44	0.03	0.44	0.33	-0.45	0.32	-0.56	0.4	-0.21	-0.64	0.12	0.31	0.5	0.42	-0.45	-0.26	Growth Rate (HEK-293T; 18 h, replicate number 2): -0.41; Growth Rate (Fibroblast; 24 h, replicate number 1): 0.05; Growth Rate (U2OS; 0 h, replicate number 2): 0.38; Growth Rate (U2OS; 6 h, replicate number 1): 0.45; Growth Rate (U2OS; 12 h, replicate number 1): 0.25; Growth Rate (U2OS; 24 h, replicate number 1): 0.38
CCOC(=O)c1ccc(N2C(=O)C(O)=C(C(=O)c3ccc(OC)cc3)C2c2ccc(F)cc2)cc1 (centres undefined)	0.75	–	–	–	–	-0.29	–	–	0.54	0.96	–	0.74	–	0.14	-1	0.87	0.89	1	–	0.85	Growth Rate (HEK-293T; 0 h, replicate number 2): 0.85; Growth Rate (HEK-293T; 18 h, replicate number 2): 0.83; Growth Rate (Fibroblast; 0 h, replicate number 2): -0.75; Growth Rate (U2OS; 0 h, replicate number 2): 0.5
CN(C(=O)c1ccccc1)c1ccc2c(c1)nc(NC(=O)c1ccc(Br)s1)n2CCC(N)=O	0.09	0.33	0.34	–	–	–	–	–	-1	0.9	0.04	0.68	0.4	–	–	0.89	0.72	0.71	0.26	0.34	Growth Rate (HEK-293T; 18 h, replicate number 2): 0.3; Growth Rate (Fibroblast; 0 h, replicate number 1): -0.8; Growth Rate (Fibroblast; 0 h, replicate number 2): -0.39; Growth Rate (Fibroblast; 24 h, replicate number 1): 0.96
CC[C@](C)(O)C#Cc1cc2c(ccn2-c2cc(OC)nc(N)n2)cn1	-0.14	0.4	0.76	–	–	0.63	–	0.83	–	–	0.55	–	0.84	-0.12	-1	–	–	–	–	–	Growth Rate (HEK-293T; 0 h, replicate number 2): 0.37; Growth Rate (Fibroblast; 0 h, replicate number 1): -0.3; Growth Rate (U2OS; 0 h, replicate number 2): -0.28
CN(C)CCCNc1ccnc(Nc2cccc(Cl)c2)n1	-0.38	-0.19	-0.03	0	0.34	0.67	0.45	0.38	-1	–	–	0.47	0.02	0.3	0.88	0.82	0.65	0.64	-0.09	0.29	Growth Rate (HEK-293T; 18 h, replicate number 2): 0.04; Growth Rate (Fibroblast; 0 h, replicate number 1): -0.99; Growth Rate (Fibroblast; 0 h, replicate number 2): 0.25; Growth Rate (Fibroblast; 24 h, replicate number 1): 0.56; Growth Rate (U2OS; 6 h, replicate number 1): -0.98
Cc1cc(C2CCCNC2)ccc1Nc1ncc(Br)c(NCc2cccc3c2C(C)(C)C(=O)N3)n1 (centres undefined)	0.39	0.08	0.07	–	0.81	0.61	0.49	0.32	-0.95	0.88	0.05	0.37	-0.01	–	–	0.86	0.61	0.46	0.09	0.13	Growth Rate (HEK-293T; 18 h, replicate number 2): 0.12; Growth Rate (Fibroblast; 24 h, replicate number 1): 0.34; Growth Rate (U2OS; 24 h, replicate number 1): 0.8

Reference: ChEMBL document CHEMBL5303304, “EUbOPEN Chemogenomics Library - IncuCyte” (2023)
